Consider 22 compounds from patent publication US20210139467A1 (GLAXOSMITHKLINE INTELLECTUAL PROPERTY DEVELOPMENT LIMITED, priority 2017, published 2021).

SMILES strings stand for the structures.

In this test the target is IDO1 (Homo sapiens, UniProt P14902). As to the kind of experiment: IDO1 PBMC RapidFire MS Assay. Type of test: cell-based. Further details: stimulated with human interferon-γ (IFN-γ); host or cells: human PBMC stimulated with IFN-gamma and LPS. To be noted: human PBMC stimulated with IFN-γ and LPS; kynurenine detected by mass spectrometry; 2 days; read-out: IDO1 PBMC pIC50 (converted). On the procedure: IDO1 PBMC RapidFire MS Assay
IDO1, sequence (P14902 whole entry): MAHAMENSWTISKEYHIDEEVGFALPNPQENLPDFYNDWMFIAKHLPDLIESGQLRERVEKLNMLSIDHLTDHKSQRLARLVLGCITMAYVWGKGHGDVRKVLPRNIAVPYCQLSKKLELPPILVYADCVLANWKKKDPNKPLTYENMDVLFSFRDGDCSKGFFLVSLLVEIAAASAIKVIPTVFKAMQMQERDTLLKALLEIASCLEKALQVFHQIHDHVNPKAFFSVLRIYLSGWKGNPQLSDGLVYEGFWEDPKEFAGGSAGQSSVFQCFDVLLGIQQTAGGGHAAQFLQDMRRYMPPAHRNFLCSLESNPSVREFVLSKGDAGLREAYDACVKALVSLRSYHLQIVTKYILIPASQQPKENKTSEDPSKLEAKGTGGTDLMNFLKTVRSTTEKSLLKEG
Compounds of the present invention were tested via high-throughput cellular assays utilizing detection of kynurenine via mass spectrometry and cytotoxicity as end-points. For the mass spectrometry and cytotoxicity assays, human peripheral blood mononuclear cells (PBMC) (PB003F; AllCells®, Alameda, Calif.) were stimulated with human interferon-γ (IFN-γ) (Sigma-Aldrich Corporation, St. Louis, Mo.) and lipopolysaccharide from Salmonella minnesota (LPS) (Invivogen, San Diego, Calif.) to induce the expression of indoleamine 2, 3-dioxygenase (IDO1). Compounds with IDO1 inhibitory properties decreased the amount of kynurenine produced by the cells via the tryptophan catabolic pathway. Cellular toxicity due to the effect of compound treatment was measured using CellTiter-Glo® reagent (CTG) (Promega Corporation, Madison, Wis.), which is based on luminescent detection of ATP, an indicator of metabolically active cells.
In preparation for the assays, test compounds were serially diluted 3-fold in DMSO from a typical top concentration of 1 mM or 5 mM and plated at 0.5 μL in 384-well, polystyrene, clear bottom, tissue culture treated plates with lids (Greiner Bio-One, Kremsmünster, Austria) to generate 11-point dose response curves. Low control wells (0% kynurenine or 100% cytotoxicity) contained either 0.5 μL of DMSO in the presence of unstimulated (−IFN-γ/-LPS) PBMCs for the mass spectrometry assay or 0.5 μL of DMSO in the absence of cells for the cytotoxicity assay, and high control wells (100% kynurenine or 0% cytotoxicity) contained 0.5 μL of DMSO in the presence of stimulated (+IFN-γ/+LPS) PBMCs for both the mass spectrometry and cytotoxicity assays.
Frozen stocks of PBMCs were washed and recovered in RPMI 1640 medium (Thermo Fisher Scientific, Inc., Waltham, Mass.) supplemented with 10% v/v heat-inactivated fetal bovine serum (FBS) (Thermo Fisher Scientific, Inc., Waltham, Mass.), and 1× penicillin-streptomycin antibiotic solution (Thermo Fisher Scientific, Inc., Waltham, Mass.). The cells were diluted to 1,000,000 cells/mL in the supplemented RPMI 1640 medium. 50 μL of either the cell suspension, for the mass spectrometry assay, or medium alone, for the cytotoxicity assay, were added to the low control wells, on the previously prepared 384-well compound plates, resulting in 50,000 cells/well or 0 cells/well respectively. IFN-γ and LPS were added to the remaining cell suspension at final concentrations of 100 ng/ml and 50 ng/ml respectively, and 50 μL of the stimulated cells were added to all remaining wells on the 384-well compound plates. The plates, with lids, were then placed in a 37° C., 5% CO2 humidified incubator for 2 days.
Following incubation, the 384-well plates were removed from the incubator and allowed to equilibrate to room temperature for 30 minutes. For the cytotoxicity assay, CellTiter-Glo® was prepared according to the manufacturer's instructions, and 40 μL were added to each plate well. After a twenty minute incubation at room temperature, luminescence was read on an EnVision® Multilabel Reader (PerkinElmer Inc., Waltham, Mass.). For the mass spectrometry assay, 10 μL of supernatant from each well of the compound-treated plates were added to 40 μL of acetonitrile, containing 10 μM of an internal standard for normalization, in 384-well, polypropylene, V-bottom plates (Greiner Bio-One, Kremsmünster, Austria) to extract the organic analytes. Following centrifugation at 2000 rpm for 10 minutes, 10 μL from each well of the acetonitrile extraction plates were added to 90 μL of sterile, distilled H2O in 384-well, polypropylene, V-bottom plates for analysis of kynurenine and the internal standard on the RapidFire 300 (Agilent Technologies, Santa Clara, Calif.) and 4000 QTRAP MS (SCIEX, Framingham, Mass.). MS data were integrated using Agilent Technologies' RapidFire Integrator software, and data were normalized for analysis as a ratio of kynurenine to the internal standard. […]
With `CC(C)CN(c1ccc(C2(C(=O)NS(C)(=O)=O)CC2)cc1Nc1cnc(C#N)nc1)C1CCOCC1` [Example 23], the IC50 was 50.1 nM.

Take `CC(C)CN(c1cnc(C2(C(=O)O)CC2)cc1Nc1ccc(Cl)cn1)C1CCOCC1` [Example 25]: the IC50 is 50.1 nM.

`CC(C)CN(c1ncc(C(C)(C)C(=O)O)cc1Nc1ccc(Cl)cn1)C1CCOCC1` [Example 6, 2-(5-((5-chloropyridin-2-yl)amino)-6-(isobutyl(tetrahydro-2H-pyran-4-yl)amino)pyridin-3-yl)-2-methylpropanoic acid]: the IC50 is 6.31 nM.

For the compound `CC(C)CN(c1ccc(C(C)(C)C(=O)NS(C)(=O)=O)cc1Nc1ccc(Cl)cn1)C1CCOCC1` [Example 2, 2-(3-((5-chloropyridin-2-yl)amino)-4-(isobutyl(tetrahydro-2H-pyran-4-yl)amino)phenyl)-2-methyl-N-(methylsulfonyl)propanamide], the IC50 was 1.58 nM.

Turning to `COc1ncc(Nc2cc(C3(C(=O)NS(C)(=O)=O)CC3)ccc2N(CC(C)C)C2CCOCC2)cn1` [Example 20, 1-(4-(isobutyl(tetrahydro-2H-pyran-4-yl)amino)-3-((2-methoxypyrimidin-5-yl)amino)phenyl)-N-(methylsulfonyl)cyclopropane-1-carboxamide], the IC50 was 12.6 nM.

Take `CC(C)CN(c1ncc(C2(C(=O)NS(=O)(=O)C(F)(F)F)CC2)cc1Nc1ccc(Cl)cn1)C1CCOCC1` [Example 11, 1-(5-((5-chloropyridin-2-yl)amino)-6-(isobutyl(tetrahydro-2H-pyran-4-yl)amino)pyridin-3-yl)-N-((trifluoromethyl)sulfonyl)cyclopropane-1-carboxamide]: the IC50 is 31.6 nM.

As for `CC(C)CN(c1ccc(C2(C(=O)NS(C)(=O)=O)CC2)cc1Nc1nnc(C2CC2)s1)C1CCOCC1` [Example 19, 1-(3-((5-cyclopropyl-1,3,4-thiadiazol-2-yl)amino)-4-(isobutyl(tetrahydro-2H-pyran-4-yl)amino)phenyl)-N-(methylsulfonyl)cyclopropane-1-carboxamide], the IC50 was 5.01 nM.

As to `CC(C)CN(c1ccc(C(C)(C)C(=O)NS(C)(=O)=O)nc1Nc1ccc(Cl)cn1)C1CCOCC1` [Example 18, 2-(6-((5-chloropyridin-2-yl)amino)-5-(isobutyl(tetrahydro-2H-pyran-4-yl)amino)pyridin-2-yl)-2-methyl-N-(methylsulfonyl)propanamide], the IC50 is 3.16 nM.

Take `CC(C)CN(c1ncc(C2(C(=O)NS(C)(=O)=O)CC2)cc1Nc1ccc(Cl)cn1)C1CCOCC1` [Example 10, 1-(5-((5-chloropyridin-2-yl)amino)-6-(isobutyl(tetrahydro-2H-pyran-4-yl)amino)pyridin-3-yl)-N-(methylsulfonyl)cyclopropane-1-carboxamide]: the IC50 was 5.01 nM.

Turning to `CC(C)CN(c1ccc(C(C)(C)C(=O)O)cc1Nc1ccc(Cl)cn1)C1CCOCC1` [Example 1, 2-(3-((5-chloropyridin-2-yl)amino)-4-(isobutyl(tetrahydro-2H-pyran-4-yl)amino)phenyl)-2-methylpropanoic acid], the IC50 is 3.16 nM.

With `CC(C)CN(CC(C)C)c1ccc(C(C)(C)C(=O)O)cc1Nc1ccc(Cl)cn1` [Example 12, 2-(3-((5-chloropyridin-2-yl)amino)-4-(diisobutylamino)phenyl)-2-methylpropanoic acid], the IC50 was 25.1 nM.

On to `CC(C)CN(c1ncc(C2(C(=O)O)CC2)cc1Nc1ccc(Cl)cn1)C1CCOCC1` [Example 9, 1-(5-((5-chloropyridin-2-yl)amino)-6-(isobutyl(tetrahydro-2H-pyran-4-yl)amino)pyridin-3-yl)cyclopropane-1-carboxylic acid], for which the IC50 is 7.94 nM.

For the compound `CC(C)CN(CC(C)C)c1ccc(C(C)(C)C(=O)O)cc1Nc1nc(C(F)(F)F)ns1` [Example 13, 2-(4-(diisobutylamino)-3-((3-(trifluoromethyl)-1,2,4-thiadiazol-5-yl)amino)phenyl)-2-methylpropanoic acid], the IC50 is 12.6 nM.

For `CC(C)CN(c1ccc(C2(C(=O)O)CC2)cc1Nc1nnc(C2CC2)s1)C1CCOCC1` [Example 14, 1-(3-((5-cyclopropyl-1,3,4-thiadiazol-2-yl)amino)-4-(isobutyl(tetrahydro-2H-pyran-4-yl)amino)phenyl)cyclopropane-1-carboxylic acid], the IC50 is 15.8 nM.

In the case of `CC(C)CN(c1ccc(C2(C(=O)O)CC2)cc1Nc1ccc(Cl)cn1)C1CCOCC1` [Example 5, 1-(3-((5-chloropyridin-2-yl)amino)-4-(isobutyl(tetrahydro-2H-pyran-4-yl)amino)phenyl)cyclopropane-1-carboxylic acid], the IC50 was 6.31 nM.

For `COCc1ccc(Nc2cc(C3(C(=O)NS(C)(=O)=O)CC3)ccc2N(CC(C)C)C2CCOCC2)cn1` [Example 21, 1-(4-(isobutyl(tetrahydro-2H-pyran-4-yl)amino)-3-((6-(methoxymethyl)pyridin-3-yl)amino)phenyl)-N-(methylsulfonyl)cyclopropane-1-carboxamide], the IC50 was 39.8 nM.

`CC(C)CN(c1ccc(C2(C(=O)NS(C)(=O)=O)CC2)cc1Nc1ccc(Cl)cn1)C1CCOCC1` [Example 4, 1-(3-((5-chloropyridin-2-yl)amino)-4-(isobutyl(tetrahydro-2H-pyran-4-yl)amino)phenyl)-N-(methylsulfonyl)cyclopropane-1-carboxamide]: the IC50 was 0.794 nM.

On to `CC(C)CN(c1ccc(C(C)(C)C(=O)NS(=O)(=O)C(F)(F)F)cc1Nc1ccc(Cl)cn1)C1CCOCC1` [Example 3, 2-(3-((5-chloropyridin-2-yl)amino)-4-(isobutyl(tetrahydro-2H-pyran-4-yl)amino)phenyl)-2-methyl-N-((trifluoromethyl)sulfonyl)propanamide], for which the IC50 is 20 nM.

Turning to `CC(C)CN(c1ccc(C2(C(=O)NS(C)(=O)=O)CC2)cc1Nc1cnc(C(N)=O)nc1)C1CCOCC1` [Example 22], the IC50 is above 10000 nM.

As to `CC(C)CN(c1ccc(C(C)(C)C(=O)O)nc1Nc1ccc(Cl)cn1)C1CCOCC1` [Example 17, 2-(6-((5-chloropyridin-2-yl)amino)-5-(isobutyl(tetrahydro-2H-pyran-4-yl)amino)pyridin-2-yl)-2-methylpropanoic acid], the IC50 is 6.31 nM.

For `CC(C)CN(c1ncc(C(C)(C)C(=O)NS(=O)(=O)C(F)(F)F)cc1Nc1ccc(Cl)cn1)C1CCOCC1` [Example 8, 2-(5-((5-chloropyridin-2-yl)amino)-6-(isobutyl(tetrahydro-2H-pyran-4-yl)amino)pyridin-3-yl)-2-methyl-N-((trifluoromethyl)sulfonyl)propanamide], the IC50 was 20 nM.

Regarding `CC(C)CN(c1ncc(C(C)(C)C(=O)NS(C)(=O)=O)cc1Nc1ccc(Cl)cn1)C1CCOCC1` [Example 7, 2-(5-((5-chloropyridin-2-yl)amino)-6-(isobutyl(tetrahydro-2H-pyran-4-yl)amino)pyridin-3-yl)-2-methyl-N-(methylsulfonyl)propanamide], the IC50 was 5.01 nM.
